Experimental data as given in ChEMBL document CHEMBL5518182, “Discovery and development of BI 1265162, an ENaC inhibitor for the treatment of cystic fibrosis” (Eur J Med Chem, 2024).
Activity calls are given as the source filed them. No cut-off for these calls is given here.

Columns and labels:
[1] = Inhibition of ENaC in mouse M1 cells upto 10 uM by chamber assay; type: cell-based; conditions: m1 cell
[2] = Permeability across basal to apical side in human Calu-3 cells at 0.1 to 300 uM measured upto 2 hrs by HPLC-MS/MS analysis; type: ADME, cell-based; conditions: dose 0.1-300 µM, read-out: permeability
[3] = Solubility of compound at pH 5; type: physicochemical; conditions: buffer
[4] = biological target: Acetylcholinesterase (Homo sapiens) (UniProt P22303); assay: Inhibition of AChE (unknown origin) at 10 uM relative to control
Acetylcholinesterase (Homo sapiens), sequence (P22303 whole entry): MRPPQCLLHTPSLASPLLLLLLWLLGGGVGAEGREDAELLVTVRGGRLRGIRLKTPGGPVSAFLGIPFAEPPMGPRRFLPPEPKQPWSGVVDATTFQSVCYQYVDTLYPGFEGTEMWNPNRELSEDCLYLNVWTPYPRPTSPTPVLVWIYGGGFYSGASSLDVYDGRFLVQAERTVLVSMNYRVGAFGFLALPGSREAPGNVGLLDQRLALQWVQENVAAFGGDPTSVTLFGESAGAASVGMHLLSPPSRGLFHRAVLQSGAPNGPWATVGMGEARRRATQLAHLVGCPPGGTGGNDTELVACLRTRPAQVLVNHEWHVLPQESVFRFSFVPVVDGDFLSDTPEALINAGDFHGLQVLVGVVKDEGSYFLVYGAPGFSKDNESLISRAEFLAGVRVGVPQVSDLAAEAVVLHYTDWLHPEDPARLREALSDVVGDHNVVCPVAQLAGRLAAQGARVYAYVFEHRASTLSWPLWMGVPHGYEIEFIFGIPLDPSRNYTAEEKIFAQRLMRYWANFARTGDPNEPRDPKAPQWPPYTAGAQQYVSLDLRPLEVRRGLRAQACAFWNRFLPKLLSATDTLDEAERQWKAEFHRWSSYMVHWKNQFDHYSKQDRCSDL

[5] = test system: Lung; assay: Inhibition of lung water resorption in Wistar rat at 0.3 ug/kg, IT(Intratracheal) incubated for 3 hrs relative to control; type: functional
[6] = test system: Lung; assay: Inhibition of lung water resorption in Wistar rat at 30 ug/kg, IT(Intratracheal) incubated for 3 hrs relative to control; type: functional
[7] = test system: M1 cell; assay: Inhibition of ENaC-mediated water resorption in mouse M1 cells at 3 uM by radiometric dilution assay relative to control; type: cell-based
[8] = test system: Lung; assay: Inhibition of lung water resorption in Wistar rat at 3 ug/kg, IT(Intratracheal) incubated for 3 hrs relative to control; type: functional
[9] = test system: Rattus norvegicus; assay: Acute effect on Han Wistar rat model of lung fluid absorption administered intratracheally measured after 3 hrs; type: functional; conditions: route it(Intratracheal)
[10] = test system: Rattus norvegicus; assay: Upregulation of serum aldosterone level in Han Wistar rat model of lung fluid absorption at 3 ug/kg, IT(Intratracheal) measured after 3 hrs relative to control; type: functional; conditions: dose 3 µg/kg
[11] = test system: Rattus norvegicus; assay: Effect on Han Wistar rat model of lung fluid absorption at ED70 administered intratracheally measured after 20 hrs; type: functional; conditions: route it(Intratracheal)
[12] = species on record: Rattus norvegicus; assay: Upregulation of serum potassium level in Han Wistar rat; type: functional, organism-based

Row | Structure (SMILES) | IC50 [1] [nM] | Papp B→A at 2 h, up to 300 µM [2] [×10⁻⁶ cm/s] | solubility [3] [%] | inhibition [7] [%] | also measured
1 | CCn1c(CNC(=O)c2nc(Cl)cnc2N)[n+](CC)c2ccccc21 | 0.7 |  |  |  | 
2 | Cn1c(CNC(=O)c2nc(Cl)cnc2N)[n+](C)c2ccccc21 | 81 |  |  |  | 
3 | CCn1c(CNC(=O)c2nc(Cl)cnc2N)[n+](CC)c2cc(C(=O)N3CCC(N(C)C)CC3)ccc21 | 4.2 | < 0.13 | > 2 | 79 | inhibition [4]: 11%; inhibition in vivo at 0.0003 mg/kg [5]: 19%; inhibition in vivo at 0.03 mg/kg [6]: 26%; inhibition in vivo at 0.003 mg/kg [8]: 25%
4 | CCn1c(CNC(=O)c2nc(Cl)c(NC)nc2N)[n+](CC)c2ccccc21 | 305 |  |  |  | 
5 | CC[n+]1c(CNC(=O)c2nc(Cl)c(N)nc2N)n(CC2CCOCC2)c2ccc(OCC(=O)N(Cc3nc(C)ccc3O)C[C@H](C)O)cc21 | 2.5 | 0.2 | < 2 | 63 | 
6 | CC[n+]1c(CNC(=O)c2nc(Cl)cnc2N)n(CC2CCOCC2)c2ccc(OCC(=O)N(Cc3nc(C)ccc3O)C[C@H](C)O)cc21 | 8.6 | 0.12 | > 5 | 72 | inhibition [4]: 18%; inhibition in vivo at 0.0003 mg/kg [5]: 8%; inhibition in vivo at 0.03 mg/kg [6]: 33%; inhibition in vivo at 0.003 mg/kg [8]: 17%
7 | CCn1c(CNC(=O)c2nc(Cl)c(N)nc2N)[n+](CCCO)c2cc(OC)ccc21 | 0.3 |  |  |  | 
8 | CCn1c(CNC(=O)c2nc(Br)cnc2N)[n+](CC)c2ccccc21 | 0.7 |  |  |  | 
9 | CCn1c(CNC(=O)c2nc(Cl)c(N)nc2N)[n+](CC)c2ccccc21 | 0.2 |  |  |  | 
10 | Cn1c(CNC(=O)c2nc(Cl)c(N)nc2N)[n+](C)c2ccccc21 | 19 |  |  |  | 
11 | CCn1c(CNC(=O)c2nc(Cl)c(N)nc2N)[n+](CCO)c2cc(OCC(=O)N3CCN(C(C)=O)CC3)ccc21 | 3.1 | 0.31 | < 2 | 92 | 
12 | CCn1c(CNC(=O)c2nc(Cl)cnc2N)[n+](CCO)c2cc(OCC(=O)N3CCN(C(C)=O)CC3)ccc21 | 18 | 0.7 | > 5 | 76 | inhibition [4]: 75%; inhibition in vivo at 0.003 mg/kg [8]: 75%
13 | CCn1c(CNC(=O)c2nc(Cl)cnc2N)[n+](CC)c2cc(C(=O)NCCCN)ccc21 | 3.6 |  |  | 83 | inhibition in vivo at 0.03 mg/kg [6]: 24%; inhibition in vivo at 0.003 mg/kg [8]: 25%
14 | CC[n+]1c(CNC(=O)c2nc(Cl)c(N)nc2N)n(CC(=O)O)c2ccc(OC)cc21 | 6.5 |  |  |  | 
15 | CCn1c(CNC(=O)c2nc(Cl)cnc2N)[n+](CC)c2cc(OCC(=O)O)ccc21 | 16 | 0.22 |  | 70 | 
16 | CCn1c(CNC(=O)c2nc(Cl)cnc2N)[n+](CC)c2cc(OCC(=O)NCCOCP(C)(C)=O)ccc21 | 3.4 |  |  | 72 | ED50 [9]: 0.09 µg/kg; ED70 [9]: 0.18 µg/kg; inhibition [4]: 29%; Activity [10]: <25%; inhibition in vivo at 0.0003 mg/kg [5]: 30%; inhibition in vivo at 0.03 mg/kg [6]: 30%; Efficacy [11]: 31%; Activity [12]: inactive; inhibition in vivo at 0.003 mg/kg [8]: 31%
17 | CCn1c(CNC(=O)c2nc(Cl)cnc2N)[n+](CC)c2cc(C(=O)O)ccc21 | 29 | 0.17 |  |  | 
18 | CCn1c(CNC(=O)c2nc(Cl)cnc2N)[n+](CC)c2cc(C(=O)N3CCC(N)CC3)ccc21 | 5 | 0.18 | > 2 | 84 | inhibition in vivo at 0.03 mg/kg [6]: 26%; inhibition in vivo at 0.003 mg/kg [8]: 13%

Row | Structure (SMILES) | IC50 [1] [nM] | Papp B→A at 2 h, up to 300 µM [2] [×10⁻⁶ cm/s] | solubility [3] [%] | inhibition [7] [%] | also measured
19 | CCn1c(CNC(=O)c2nc(Cl)cnc2N)[n+](CC)c2cc(C(=O)OC)ccc21 | 3 |  |  |  | 
20 | CCn1c(CNC(=O)c2cc(Cl)ccc2N)[n+](CC)c2ccccc21 | 19 |  |  |  | 
21 | CCOP(=O)([O-])CCCOc1ccc2c(c1)[n+](CC)c(CNC(=O)c1nc(Cl)c(N)nc1N)n2CC1CCOCC1 | 8.3 | 0.17 | < 5 | 81 | 
22 | CCn1c(CNC(=O)c2nc(Cl)cnc2N)[n+](CC)c2cc(OCC(=O)OC)ccc21 | 0.7 | 0.25 |  | 65 | 
23 | CCn1c(CNC(=O)c2nc(Cl)c(N)nc2N)[n+](CCO)c2cc(OC)ccc21 | 0.5 |  |  |  | 
24 | CCOP(=O)([O-])CCCOc1ccc2c(c1)[n+](CC)c(CNC(=O)c1nc(Cl)c(N)nc1N)n2CCCC#N | 19 | 0.22 | > 5 | 83 | inhibition in vivo at 0.03 mg/kg [6]: 16%; inhibition in vivo at 0.003 mg/kg [8]: 6%
25 | CCn1c(CNC(=O)c2nc(Cl)c(N)nc2N)[n+](CC)c2cc(OCCCP(=O)([O-])OCCOC)ccc21 | 4.2 | 0.03 | > 5 | 98 | inhibition in vivo at 0.03 mg/kg [6]: 22%; inhibition in vivo at 0.003 mg/kg [8]: 12%
26 | CCn1c(CNC(=O)c2nc(Cl)c(N)nc2N)[n+](CC)c2cc(OCCCP(=O)([O-])OC[C@H]3CCCO3)ccc21 | 10 | 0.06 | > 5 | 89 | inhibition in vivo at 0.03 mg/kg [6]: 16%; inhibition in vivo at 0.003 mg/kg [8]: 14%
27 | CCn1c(CNC(=O)c2cc(Cl)cnc2N)[n+](CC)c2ccccc21 | 50 |  |  |  | 
28 | CC[n+]1c(CNC(=O)c2nc(Cl)c(N)nc2N)[nH]c2ccc(OC)cc21 | 26 |  |  |  | 
29 | CC[n+]1c(CNC(=O)c2nc(Cl)cnc2N)n(CCOCCOCCO)c2ccc(OC)cc21 | 3 |  |  |  | 
30 | CC[n+]1c(CNC(=O)c2nc(Cl)c(N)nc2N)n(CC(=O)OC)c2ccc(OC)cc21 | 0.5 |  |  |  | 
31 | CCn1c(CNC(=O)c2nccnc2N)[n+](CC)c2ccccc21 | 169 |  |  |  | 
32 | CC[n+]1c(CNC(=O)c2nc(Cl)c(N)nc2N)n(CCOCCOCCO)c2ccc(OC)cc21 | 0.5 |  |  |  | 
33 | CCn1c(CNC(=O)c2nc(Cl)c(N)nc2N)nc2cc(OC)ccc21 | 168 |  |  |  | 
34 | CCn1c(CNC(=O)c2nc(Cl)c(N)nc2N)[n+](CC)c2cc(OC)ccc21 | 0.3 |  |  |  | 
35 | CCn1c(CNC(=O)c2ncc(C)nc2N)[n+](CC)c2ccccc21 | 1670 |  |  |  | 
36 | CCn1c(CNC(=O)c2nc(Cl)cnc2N)[n+](CC)c2ccc(C(=O)NCCCN)cc21 |  | 0.22 | > 2 |  | 
